Columns and labels:
[1] = system: dorsal root ganglion (DRG) neurons; experiment: Resting membrane potential of DRG neurons, whole-cell current clamp; type: cell-based, mice; settings: 10 μM, pH 7.4, 120 s application
Experimental: (§1) All animal experiments were approved by the local Animal Care and Use Committee and followed international guidelines. Five female 7-12 week-old C57BL/6 mice (Scanbur) were used for this study. The mice were anaesthetized with isoflurane and decapitated. Dorsal root ganglia (DRG) were dissected from all spinal levels and enzymatically digested with collagenase (250 CDU/ml) for 15 min, and then trypsin (1 mg/ml) was added for another 30 min. The ganglia were centrifuged and resuspended in Leibovitz L-15 media with glutamine, supplemented with 10% fetal calf serum, 38 mM glucose, 24 mM NaHCO3 and penicillin/streptomycin. The ganglia were triturated and the DRG neurons plated on poly-D-lysine coated plastic coverslips. The neurons were cultured at 37° C. with 5% CO2 for 2-3 days before the electrophysiological recordings.
(§2) All manual electrophysiological recordings were performed at room temperature (20-23° C.), using a GeneClamp 500B amplifier (for oocytes) or a Axopatch 200B amplifier (for manual patch clamp of CHO—K1 cells and DRG neurons) and a Digidata 1440A digitizer and pClamp 10 software (all from Molecular Devices, Inc., Sunnyvale, Calif., USA). Compounds were dissolved to 100 mM in 99.5% EtOH and stored at −20° C. Compounds were diluted in extracellular solution to the desired test concentration.
(§3) CHO—K1 Cells were plated on coverslips 2 h before the manual electrophysiological recordings. Coverslips with CHO—K1 cells or DRG neurons were placed in a recording chamber and perfused with extracellular solution by a gravity-fed perfusion system. Substances were applied by a pressurized, automated OctaFlow perfusion system (ALA Scientific Instruments). The signals were sampled at 5-20 kHz after low-pass filtering at 2-5 kHz. For CHO—K1 cells the intracellular solution contained (in mM): 120 K-gluconate, 10 KCl, 5 EGTA, 10 HEPES, 4 Mg-ATP, 0.3 Na-GTP, pH 7.3; the extracellular solution contained (in mM): 135 NaCl, 4 KCl, 10 HEPES, 1 MgCl2, 1.8 CaCl2, 10 glucose, pH 7.4. Currents were evoked in CHO—K1 cells in whole-cell voltage-clamp mode from a holding potential of −80 mV by 100-ms long, 10-mV steps ranging from −80 to +80 mV.
(§4) For DRG neurons the intracellular solution contained (in mM): 120 K-gluconate, 10 KCl, 1 EGTA, 10 HEPES, 4 Mg-ATP, 0.3 Na-GTP, pH 7.3; the extracellular solution contained (in mM): 144 NaCl, 2.5 KCl, 10 HEPES, 0.5 MgCl2, 2 CaCl2, 10 glucose, pH 7.4. A liquid-junction potential of approximately −14 mV was corrected for. […] Small and medium sized DRG neurons were selected for whole-cell current-clamp recording. 10 μM of the compounds were applied for 120 s to study the effect on the resting membrane potential, and for 45-120 s to study the effects on evoked action potentials. To evoke action potentials 800-ms depolarizing pulses
The compound effect on the resting membrane potential Vm was determined by subtracting the control pre-compound Vm from the Vm at the end of the 120 s application of test compound.

3R Shaker K channel = 3R Shaker K channel (Drosophila melanogaster, UniProt P08510, A359R/M356R); experiment: G(V) shift of 3R Shaker K channel stably expressed in CHO-K1 cells, whole-cell patch clamp; type: cell-based; settings: 10 μM, pH 7.4
Sequence of 3R Shaker K channel (P08510 whole entry M356R/A359R): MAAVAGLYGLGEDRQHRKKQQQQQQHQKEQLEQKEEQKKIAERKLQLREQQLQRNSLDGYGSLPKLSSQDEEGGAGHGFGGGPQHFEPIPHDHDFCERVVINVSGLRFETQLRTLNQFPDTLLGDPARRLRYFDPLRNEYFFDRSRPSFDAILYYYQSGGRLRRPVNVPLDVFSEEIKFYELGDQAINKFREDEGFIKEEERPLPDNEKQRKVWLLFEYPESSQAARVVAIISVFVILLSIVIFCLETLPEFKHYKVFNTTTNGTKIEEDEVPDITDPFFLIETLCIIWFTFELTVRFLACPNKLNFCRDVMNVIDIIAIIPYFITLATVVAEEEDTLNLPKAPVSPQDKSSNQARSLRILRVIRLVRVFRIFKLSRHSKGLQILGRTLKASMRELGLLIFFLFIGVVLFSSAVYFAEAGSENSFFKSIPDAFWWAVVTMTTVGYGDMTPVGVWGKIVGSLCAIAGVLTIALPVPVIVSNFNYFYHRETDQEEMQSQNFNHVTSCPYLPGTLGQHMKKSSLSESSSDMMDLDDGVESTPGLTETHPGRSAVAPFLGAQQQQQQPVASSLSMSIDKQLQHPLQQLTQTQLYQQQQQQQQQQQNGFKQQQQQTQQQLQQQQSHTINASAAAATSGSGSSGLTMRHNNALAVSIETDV
Text: All animal experiments were approved by the local Animal Care and Use Committee and followed international guidelines. A modified Shaker H4 channel^30, with removed N-type inactivation (ShH4IR)^31, here called the wild type (WT) channel, was expressed in oocytes. In addition, a modified 3R Shaker K channel where two introduced positive charged arginines (M356R and A359R) in addition to one native arginine (R362) makes the channel more sensitive to DHA^16, was expressed in oocytes and in a CHO—K1 stable cell line.
For the modified 3R Shaker K channel a stable cell line was generated. The construct was cloned into the pcDNA3 vector. CHO—K1 cells were plated into T75 culture flasks and grown without penicillin/streptomycin. […]
where IK is the average current from the steady-state phase at the end of each 100-ms pulse, V is the membrane voltage, and Vrev is the reversal potential for K^+, (set to −80 mV for the oocytes, and calculated to be −89 mV for the CHO—K1 cells).
where A is amplitude of the curve, V is the absolute membrane voltage, V1/2 is the midpoint, s is the slope and n is an exponent set to 4^17. The compound-induced G(V) shift was determined at the 10% level of the maximum conductance in control solution^17. The compound-induced G(V) shift in CHO—K1 was quantified by subtracting the control V1/2 from the compound V1/2 when n was set to 1.

[2] = system: dorsal root ganglion (DRG) neurons; experiment: Evoked action potentials (excitability) of DRG neurons, current clamp; type: cell-based, mice; settings: 10 μM; for effect on the after hyperpolarization: cell with single action potential; for effect on resting potential, cell with single action potential: constant current pulse; for effect on train of action potentials: continuous pulse
Experimental: as §1, §2, §3, §4

Row | SMILES | shift of the resting membrane potential (ΔVm) [1] | G(V) shift in CHO cells (3R Shaker K channel) | effect on the after hyperpolarization [2] | effect on resting potential, cell with single action potential [2] | effect on train of action potentials [2]
1 | CO/N=C1\CC2[C@](C)(C(=O)O)CCC[C@]2(C)c2cc(Br)c(C(C)C)cc21 (stereo partly drawn) [Wu32, (1R,4aS,E)-6-bromo-7-isopropyl-9-(methoxyimino)-1,4a-dimethyl-1,2,3,4,4a,9,10,10a-octahydrophenanthrene-1-carboxylic acid] | intermediately potent hyperpolarizers |  |  |  | 
2 | CC(C)c1ccc2c(c1)C(C(=O)O)CC1[C@](C)(C(=O)O)CCC[C@]21C (stereo partly drawn) [Wu35] | −1.1±0.4 | very poor shifter | only a very small effect | almost no effect | almost no effect on the same cell
3 | C[C@@]1(C(=O)O)CCC[C@]2(C)c3cc(Cl)c(Cl)c(Cl)c3CCC12 (stereo partly drawn) [Wu50, (1R,4aS)-6,7,8-trichloro-1,4a-dimethyl-1,2,3,4,4a,9,10,10a-octahydrophenanthrene-1-carboxylic acid] |  |  | pronounced effect | made the resting potential more negative | completely abolished all action potentials

Reference: patent US20180193294A1, “Dehydroabietic acid (DHAA) derivatives for use as ion channel openers” (priority 2015, published 2018)
